The values that follow come from patent US20120164104A1, “Composition and Methods of Treating Viral Infections and Viral Induced Tumors” (Chimerix, Inc., priority 2009, published 2012).

Type in all cases: cell-based
Assay [1] concerns JCV Mad-4. Kind of assay: Extracellular JCV load in JCV-infected COS-7 cells (qPCR). The method, then:
COS-7 supernatants were harvested 5 […] post start of treatment with indicated CMX001 concentrations. JCV load was measured by qPCR and input virus subtracted. DNA load in untreated cells (5.04×10 E+9 geq/ml) was set as 100%. Replication of JCV is shown as percentage of untreated cells to determine the IC-50 and IC-90. […] Supernatants from CMX001-treated and untreated JCV-infected COS-7 cells were harvested at indicated timepoints after infection and JCV load measured by qPCR. Data are presented as JCV load in log geq/ml. COS-7 or astrocyte cells were infected at a confluence of 60-70% with JCV(Mad-4) at an estimated TCID50 of 0.2. After 2 h incubation at 37° C., supernatants were replaced with fresh medium without or with increasing concentration CMX001. […] JCV loads were quantified after DNA extraction from 100 ul cell culture supernatants and the Corbett X-tractor Gene and the Corbett VX reagents (Qiagen, Hombrechtikon, Switzerland). The real-time PCR protocol for detection of JCV DNA samples targets the JCV large T coding sequence and has been described elsewhere (5). To investigate the effect of CMX001 on JCV progeny, increasing concentrations of CMX001 were added at 2 h p.i. and supernatants harvested at 5 d.p.i. It was observed that CMX001 reduced the extracellular JCV load in a concentration dependent manner (FIG. 12).
(Quantitative PCR measures a nucleic acid by following its amplification.)

For assay [2], the system named is COS-7 cells. Kind of assay: Metabolic activity of uninfected COS-7 cells (WST-1 assay). The method, then: Metabolic activity was examined as WST-1 cleavage. Medium with indicated CMX001 concentrations was added to COS-7 cells and absorbance measured 72 h post seeding. Absorbance for untreated cells was set as 100%. The metabolic activity was monitored by the colorimetric WST-1 assay (Roche) of the mitochondrial dehydrogenases in viable cells. COS-7 cells were seeded in 96 well plates and CMX001 was added at indicated concentrations. The WST-1 cleavage product was measured at 450 nm (sample) and at 650 nm (background). WST-1 plus medium alone served as blank.

Assay [3] relates to SCaBER. Kind of assay: Cell proliferation assay (MTS or SRB), SCaBER. Conditions: Homo sapiens, 72 h, Bladder, 3 days, read-out: IC50 (cell growth inhibition). The method, then: (§1) In vitro cell proliferation assays were performed using a 96-well plate based MTSassay (CellTiter 96° AqueousOne Solution Cell Proliferation Assay, Promega) or SRB (Sulforhodamine-B) assay (1-3). Briefly, cells were plated in 100 μl medium on day 0 in 96-well microtiter plates (Falcon #3072). On day 1, 10 μl of serial dilutions of each compound (Nine 1:2 dilutions with a starting concentration of 100 μM; in some cases, a starting concentration of 400 μM (CMX001 or Cidofovir) or 1 μM (some standard agents)) were added in triplicates to the plates. For standard agents using DMSO as solvent, serial dilutions of DMSO with a starting concentration of 0.5% were also included as a vehicle control.
(§2) After incubation for 3 days at 37° C. in a humidified incubator, viable cells were measured either by MTS or SRB assay. For MTS assay, 20 μl of a 20:1 mixture of (3-(4,5-dimethylthiazol-2-yl)-5-(3-carboxymethoxyphenyl)-2-(4-sulfophenyl)-2H-tetrazolium, inner salt (MTS, 2 mg/ml) and an electron coupling reagent, phenazine methosulfate (PMS, 0.92 mg/ml in DPBS), was added to each well and incubated for 3 hours at 37° C. Absorbance was measured using a BioTek Synergy™ HT Multiple Detection microplate reader at 490 nm. For SRB assay, cells were fixed in situ with 50 μL of cold trichloroacetic acid (TCA, final concentration at 10% w/v) for 60 minutes. Cells were then washed 5 times with H2O and air-dried.
(§3) Next, cells were stained with 20 μL of 0.2% SRB in 1% acetic acid and incubated at room temperature for 30 minutes and unbound SRB was removed by washing 5 times with 1% acetic acid and air-dried. Finally, bound SRB stain was solubilized in 50 μL of 50 μM Tris buffer before taking an optical density measurement at 570 nm using the BioTek microplate reader. The growth inhibition data were expressed as the percentage of cell survival calculated from the background corrected absorbance. The surviving fraction of cells was determined by dividing the mean absorbance values of the test agent-treated samples by the mean absorbance values of untreated control. […]

In assay [4] the test system is SW 780. The assay can be described thus: Cell proliferation assay (MTS or SRB), SW 780. Conditions: Homo sapiens, SW780, 72 h; SW 780, Bladder, 3 days; read-out: IC50 (cell growth inhibition). The procedure:
as §1, §2, §3

For assay [5], the system named is DU 145. Kind of assay: Cell proliferation assay (MTS or SRB), DU 145. Conditions: Homo sapiens, 72 h; DU 145, Prostate, 3 days; read-out: IC50 (cell growth inhibition). The procedure:
as §1, §2, §3

The subject of assay [6] is PC-3. Kind of assay: Cell proliferation assay (MTS or SRB), PC-3. Conditions: Homo sapiens, 72 h; PC-3, Prostate, 3 days; read-out: IC50 (cell growth inhibition). The method, then:
as §1, §2, §3

Assay [7] concerns MDA-231. The assay can be described thus: Cell proliferation assay (MTS or SRB), MDA-231. Conditions: Homo sapiens, MDA-MB-231, 72 h; MDA-231, Breast, 3 days; read-out: IC50 (cell growth inhibition). The procedure: as §1, §2, §3
The subject of assay [8] is A2058. The assay can be described thus: Cell proliferation assay (MTS or SRB), A2058. Particulars: Homo sapiens, 72 h; A2058, Skin (melanoma), 3 days; read-out: IC50 (cell growth inhibition). The procedure:
as §1, §2
Next, cells were stained with 20 μL of 0.2% SRB in 1% acetic acid and incubated at room temperature for 30 minutes and unbound SRB was removed by washing 5 times with 1% acetic acid and air-dried. Finally, bound SRB stain was solubilized in 50 μL of 50 μM Tris buffer before taking an optical density measurement at 570 nm using the BioTek microplate reader. The growth inhibition data were expressed as the percentage of cell survival calculated from the background corrected absorbance. The surviving fraction of cells was determined by dividing the mean absorbance values of the test agent-treated samples by the mean absorbance values of untreated control.
Raw data were acquired using a BioTek Synergy™ HT Multiple Detection microplate reader and imported into Microsoft Excel for analysis. The average signal of each treatment was calculated from the triplicates after subtracting the blank signals. The percentage survival values were calculated using the following formula: % survival=(average signal of the drug treatment/average signal of untreated controls)×100. The data were finally imported into the Prism 4 software (GraphPad Software, San Diego, Calif.) to generate the dose-activity curves using non-linear regression curve fit and to calculate the IC50 values.

The test system of assay [9] is Het-1A. Kind of assay: Cell proliferation assay (MTS or SRB), Het-1A. Conditions: Homo sapiens, 72 h, Esophagus (Normal), SV40 large T immortalized, 3 days, read-out: IC50 (cell growth inhibition). The method, then:
as §1
After incubation for 3 days at 37° C. in a humidified incubator, viable cells were measured either by MTS or SRB assay. […]
Next, cells were stained with 20 μL of 0.2% SRB in 1% acetic acid and incubated at room temperature for 30 minutes and unbound SRB was removed by washing 5 times with 1% acetic acid and air-dried. Finally, bound SRB stain was solubilized in 50 μL of 50 μM Tris buffer before taking an optical density measurement at 570 nm using the BioTek microplate reader. The growth inhibition data were expressed as the percentage of cell survival calculated from the background corrected absorbance. […]

For the compound `CCCCCCCCCCCCCCCCOCCCOP(=O)(O)CO[C@H](CO)Cn1ccc(N)nc1=O` [CMX001], the “change in the JCV load over 7 days” value in assay [1] (5 nM CMX001, COS-7) is “less than 1 log”. For the same compound, the IC50 is 150 nM in assay [1] (120 h, COS-7, day 5 p.i., viral input subtracted, read-out: inhibitory concentration IC-50 (extracellular JCV load)); roughly 5 µM in [2] (Chlorocebus aethiops, uninfected COS-7 cells); 82.1 µM in assay [3]; 10 µM in [4]; 19 µM in [5]; 6.6 µM in [6]. Besides, the IC50 in assay [7] was determined as 11.2 µM; in assay [8], 21.7 µM; in [9] it was 20.5 µM. For the same compound, the IC90 in [1] (120 h, COS-7, day 5 p.i., viral input subtracted, read-out: inhibitory concentration IC-90 (extracellular JCV load)) amounted to 600 nM. The “reduction of JCV viral load” value in [1] (CMX001 0.15 μM, day 5 p.i.) was greater than 50%. Further, the “IC-90 concentration lower than concentrations reported for CDV inhibition of JCV” value in assay [1] (CMX001 0.6 μM, COS-7) is recorded as 2 orders of magnitude. Further, the “viral load at 7 d.p.i. relative to untreated cells at 3 d.p.i.” value in assay [1] (CMX001 5 uM, COS-7) was determined as 91%. The “loss of metabolic activity” value in [2] (CMX001 0.6 μM, COS-7) came out at 17%.
With `Nc1ccn(C[C@@H](CO)OCP(=O)(O)O)c(=O)n1` [cidofovir], the IC50 in assay [3], in assay [4], in assay [5], in [6], in assay [7] and in assay [8] was greater than 100 µM each time. Moreover, in assay [9], the IC50 is greater than 100 µM.
